Experimental findings from patent US20040009464A1, “Methods for identifying compounds for inhibition of neoplastic lesions, and pharmacetical compositions containing such compounds” (priority 1998, published 2004) are described below.

In series [1] the test system is HT-29 cells. Description: Apoptosis and necrosis by morphology (acridine orange/ethidium bromide) in HT-29 cells. In kind it is cell-based, human. The following applies: HT-29 treated for six days. The text has this: Apoptosis occurs naturally during normal tissue turnover and during embryonic development of organs and limbs. Apoptosis also is induced by cytotoxic T-lymphocytes and natural killer cells, by ionizing radiation and by certain chemotherapeutic drugs. Inappropriate regulation of apoptosis is thought to play an important role in many pathological conditions including cancer, AIDS, or Alzheimer's disease, etc. Compounds can be screened for induction of apoptosis using cultures of tumor cells maintained under conditions as described above. Treatment of cells with test compounds involves either pre- or post-confluent cultures and treatment for two to seven days at various concentrations. Apoptotic cells are measured in both the attached and “floating” compartments of the cultures. Both compartments are collected by removing the supernatant, trypsinizing the attached cells, and combining both preparations following a centrifugation wash step (10 minutes, 2000 rpm). The protocol for treating tumor cell cultures with sulindac and related compounds to obtain a significant amount of apoptosis has been described in the literature. […]
The apoptosis inducing activity for a series of phosphodiesterase inhibitors was determined. […] Apoptosis and necrosis were determined morphologically after acridine orange and ethidium bromide labeling in accordance with the assay described, supra.

The subject of series [2] is PKG in HCT116 colon cancer cells. Description: PKG activity assay on lysates of drug-treated HCT116 cells. The class given is cell-based. The text has this: To test the effect of cGMP-specific PDE inhibition on neoplasia containing the β-catenin mutation, HCT116 colon cancer celis were employed. HCT116 is known to contain the β-catenin mutation, but is known not to contain the APC mutation.
The same procedure is used to grow the HCT116 cells as is used in the SW480 procedure described above. In this experiment, only exisulind and controls were used.

The test system of series [3] is premalignant lesions in mouse mammary gland organ culture. The series can be described thus: Mammary gland organ culture model. In kind it is cell-based. The settings on record: FIG. 17. From the text:
Test compounds identified by the above methods can be tested for antineoplastic activity by their ability to inhibit the incidence of pre-neoplastic lesions in a mammary gland organ culture system. This mouse mammary gland organ culture technique has been successfully used by other investigators to study the effects of known antineoplastic agents such as certain NSAIDs, retinoids, tamoxifen, selenium, and certain natural products, and is useful for validation of the screening method of the present invention.
For example, female BALB/c mice can be treated with a combination of estradiol and progesterone daily, in order to prime the glands to be responsive to hormones in vitro. The animals are sacrificed, and thoracic mammary glands are excised aseptically and incubated for ten days in growth media supplemented with insulin, prolactin, hydrocortisone, and aldosterone. DMBA (7,12-dimethylbenz(a)anthracene) is added to medium to induce the formation of premalignant lesions Fully developed glands are then deprived of prolactin, hydrocortisone, and aldosterone, resulting in the regression of the glands but not the pre-malignant lesions.
The test compound is dissolved in DMSO and added to the culture media for the duration of the culture period. At the end of the culture period, the glands are fixed in 10% formalin, stained with alum camine, and mounted on glass slides. The incidence of forming mammary lesions is the ratio of the glands with mammary lesions to […]. The incidence of mammary lesions in test compound treated glands is compared with that of the untreated glands.
The extent of the area occupied by the mammary lesions can be quantitated by projecting an image of the gland onto a digitation pad. The area covered by the gland is traced on the pad and considered as 100% of the area. The space covered by each of the non-regressed structures is also outlined on the digitization pad and quantitated by the computer.
Mammary gland organ culture experiment were performed as previously described (Mehta and Moon, Cancer Research, 46: 5832-5835, 1986). […]

Series [4] in a line: Safety evaluation in exisulind clinical trials. The class given is in vivo. How it is done: In these exisulind trials and several others involving the drug in other indications, safety was evaluated by monitoring adverse events (AEs), clinical laboratory tests (hematology, serum chemistry, and urinalysis), vital signs (blood pressure, pulse rate, respiratory rate, temperature, and weight), physical examination, and upper endoscopy.

Turning to `CC1=C(CC(=O)O)c2cc(F)ccc2/C1=C\c1ccc(S(C)(=O)=O)cc1` [Exisulind, 5-fluoro-2-methyl-1-(p-methylsulfonylbenzylidene)-3-indenylacetic acid], the “apoptotic and necrotic cell death” value in series [1] is on record as “capable of causing apoptotic cell death without inducing necrosis”. In addition, in series [2], the “PKG activity relative to control” value is “PKG that was phosphorylated to a greater extent than the corresponding controls”. Besides, the “inhibition of premalignant lesions in mammary gland organ culture” value in series [3] is “effectively inhibit the formation of premalignant lesions”. In addition, in series [4] (human, in vivo), the “clinical safety” value was “No outstanding safety issues have been demonstrated” and the “dose-limiting adverse events” value is “elevations in liver function tests”. The “apoptosis rates in polyp and normal colonic tissues” value in series [4] (paired biopsies in APC patients) is recorded as “increased apoptosis rates in polyp, but not normal colonic tissues”.
